Consider 58 molecules from US8575197B2, “Pyrolinone derivative and pharmaceutical composition comprising the same” (Shionogi & Co., Ltd., priority 2008, dated 2013).

The assay has as its target human P2X3 receptor (Homo sapiens (Human), UniProt P56373). The experiment in a line: P2X3 receptor inhibition, ATP-evoked Fluo-3 calcium fluorescence (FDSS 3000). The class given is cell-based. Particulars: C6BU-1 cell transfected with human P2X3 receptor gene; ATP-evoked Fluo-3 fluorescence. As to the method:
Stably expressing cell line (C6BU-1 cell transfected with human P2X3 receptor gene (GenBank accession number Y07683)) was used. The cells were seeded in a 96-well microtiter plate at a concentration of 8000 cells/well and cultured in the medium (8.3% fetal bovine serum, 8.3% horse serum, 1% antibiotic and antifungal in DMEM) for one day at 37° C. under 5% carbon dioxide atmosphere. The medium was replaced with 4 μM Fluo-3-AM solution (pH7.5) containing 20 mM HEPES, 137 mM NaCl, 2.7 mM KCl, 0.9 mM MgCl2, 5.0 mM CaCl2, 5.6 mM D-glucose, 2.5 mM probenecid, 10% BSA, and 0.08% Pluronic F-127, and incubated at 37° C. under 5% dioxide carbon atmosphere for one hour. The plate was washed with washing buffer (20 mM HEPES, 137 mM NaCl, 2.7 mM KCl, 0.9 mM MgCl2, 5.0 mM CaCl2, 5.6 mM D-glucose, 2.5 mM probenecid, pH7.5), and each well was added with 40 μL of this buffer. The plate was placed in High-Throughput Screening System FDSS 3000 (Hamamatsu Photonics K.K.). Measurement of fluorescence intensity by FDSS 3000 was started, and 40 μL of DMSO solutions containing different concentrations of the test compound as prepared by dilution with dilution buffer (20 mM HEPES, 137 mM NaCl, 2.7 mM KCl, 0.9 mM MgCl2, 5.0 mM CaCl2, 5.6 mM D-glucose, 2.5 mM probenecid, 0.1% Pluronic F-127, pH7.5) were dispensed to each well through the built-in automatic dispenser. Five minutes after, 40 nM ATP solution (50 μL) prepared by dilution with the dilution buffer was dispensed through the built-in automatic dispenser, and the measurement of fluorescence intensity was continued for 3 min. For each well, the specific maximum fluorescence intensity was calculated as the ratio of the maximum fluorescence intensity after addition of the ATP solution to the fluorescence intensity at the starting of the measurement. […] FDSS software (Hamamatsu Photonics K.K.) was used for calculation of the specific maximum fluorescence intensity. IC50 was calculated using Microsoft™ Excel™ (Microsoft Corporation) and XLfit™ (ID Business Solutions Ltd.).

Molecules are shown by their SMILES.

Sequence of human P2X3 receptor (P56373 whole entry): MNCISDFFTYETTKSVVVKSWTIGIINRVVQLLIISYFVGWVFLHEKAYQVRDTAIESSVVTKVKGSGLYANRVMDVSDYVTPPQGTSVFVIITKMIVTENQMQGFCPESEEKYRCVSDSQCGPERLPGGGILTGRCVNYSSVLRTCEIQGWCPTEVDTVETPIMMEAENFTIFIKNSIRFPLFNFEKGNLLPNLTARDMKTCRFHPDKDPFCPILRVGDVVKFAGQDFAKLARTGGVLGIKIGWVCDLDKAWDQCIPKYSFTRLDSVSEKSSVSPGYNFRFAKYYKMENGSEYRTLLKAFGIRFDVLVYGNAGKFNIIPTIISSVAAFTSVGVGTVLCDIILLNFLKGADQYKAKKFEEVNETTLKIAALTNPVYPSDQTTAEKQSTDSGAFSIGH

As for `Cc1ccc(-c2ccc(N3C(=O)C(O)=C(C(=O)CC(C)C)C3c3cccnc3C(=O)NCC#N)cc2)s1` (stereo not shown) [Compound I-577], the concentration for half-maximal inhibition (IC50) came out at 47 nM. Turning to `CC(C)C(=O)C1=C(O)C(=O)N(c2ccc(-c3ccco3)cc2)C1c1ccccc1OCCO` (stereo not shown) [Compound I-225], the concentration for half-maximal inhibition (IC50) came to 65 nM. Regarding `COCCOc1ccccc1C1C(C(=O)CC(C)C)=C(O)C(=O)N1c1ccc(-c2coc(C)n2)cc1` (stereo not shown) [Compound I-391], the half-inhibitory concentration (IC50) was 684 nM. On to `COCc1ccccc1C1C(C(=O)CC(C)C)=C(O)C(=O)N1c1ccc(-c2coc(C)n2)cc1` (stereo not shown) [Compound I-392], for which the IC50 is 946 nM. As to `Cc1ccc(-c2ccc(N3C(=O)C(O)=C(C(=O)C(C)C)C3c3ccccc3C(=O)N3CCOCC3)cc2)o1` (stereo not shown) [Compound I-549], the half-maximal inhibitory concentration (IC50) turned out to be 213 nM. With `COCCOc1ccccc1C1C(C(=O)CC(C)C)=C(O)C(=O)N1c1ccc(-c2ccsc2)cc1` (stereo not shown) [Compound I-251] the figure was 17 nM; with `Cc1ccc(-c2ccc(N3C(=O)C(O)=C(C(=O)CC(C)C)C3c3cccnc3C(=O)NN(C)C)cc2)s1` (stereo not shown) [Compound I-576], 237 nM; with `CC(C)(C)c1n[nH]c2c1C(c1cccc[n+]1[O-])N(c1ccc(-c3ccsc3)cc1)C2=O` (stereo not shown) [II-074], 32 nM. As to `CC(C)C(=O)C1=C(O)C(=O)N(c2ccc(-c3cccs3)cc2)C1c1ccccc1OCCO` (stereo not shown) [Compound I-223], the IC50 was determined as 12 nM. As for `COCc1ccccc1C1C(C(=O)CC(C)C)=C(O)C(=O)N1c1ccc(-c2ccc(C)o2)cc1` (stereo not shown) [Compound I-380], the concentration for half-maximal inhibition (IC50) was 7 nM.

On to `Cc1cc(-c2ccc(N3C(=O)C(O)=C(C(=O)CC(C)C)C3c3ccccc3OC(F)F)cc2)cs1` (stereo not shown) [Compound I-377], for which the IC50 worked out at 148 nM. With `COc1ncccc1C1c2c(C(C)(C)C)n[nH]c2C(=O)N1c1ccc(-c2ccco2)cn1` (stereo not shown) [II-263], the IC50 worked out at 108 nM. Turning to `COc1ccccc1C1c2c(C(C)(C)C)n[nH]c2C(=O)N1c1ccc(C)cc1` (stereo not shown) [II-196], the IC50 is 783 nM. As to `COCCOc1ccccc1[C@@H]1C(C(=O)C(C)C)=C(O)C(=O)N1c1ccc(-c2ccoc2)cc1` [Compound I-208], the concentration for half-maximal inhibition (IC50) stood at 14 nM. For the molecule `COc1ccccc1C1c2c(C(C)(C)CO)n[nH]c2C(=O)N1c1ccc(-c2cccs2)cc1` (stereo not shown) [II-218], the IC50 was determined as 5 nM. Regarding `COCOc1ccccc1C1C(C(=O)CC(C)C)=C(O)C(=O)N1c1ccc(-c2ccsc2)cc1` (stereo not shown) [Compound I-249], the IC50 was found to be 10 nM. As to `COCOc1ccccc1C1C(C(=O)C(C)C)=C(O)C(=O)N1c1ccc(-c2ccsc2)cc1` (stereo not shown) [Compound I-213], the half-maximal inhibitory concentration (IC50) came out at 6 nM. With `COc1ccc(C(=O)C2=C(O)C(=O)N(c3ccc(-c4ccco4)cc3)C2C2CCCCC2)cc1` (stereo not shown) [Compound I-015] the figure was 12 nM. Under `C=C(C)c1n[nH]c2c1C(c1ccccc1OC)N(c1ccc(-c3ccon3)cc1)C2=O` (stereo not shown) [II-149] stands 377 nM. Under `COCCOc1ccccc1C1C(C(=O)C(C)C)=C(O)C(=O)N1c1ccc(-c2ccon2)cc1` (stereo not shown) [Compound I-298] stands 269 nM; under `COCCOc1ccccc1C1C(C(=O)C(C)C)=C(O)C(=O)N1c1ccc(-c2csc(C)n2)cc1` (stereo not shown) [Compound I-424], 519 nM. For the molecule `CCOc1ncccc1C1C(C(=O)C(C)C)=C(O)C(=O)N1c1ccc(-c2ccsc2)cc1` (stereo not shown) [Compound I-441], the half-inhibitory concentration (IC50) amounted to 13 nM.

Regarding `COc1ccccc1C1c2c(CO)n[nH]c2C(=O)N1c1ccc(-c2ccsc2)cc1` (stereo not shown) [II-182], the half-maximal inhibitory concentration (IC50) is 60 nM.

Take `CCOC(=O)C1c2c(C(C)C)n[nH]c2C(=O)N1c1ccc(-c2ccsc2)cc1` (stereo not shown) [II-183]: the half-maximal inhibitory concentration (IC50) worked out at 460 nM.

Regarding `COCc1ccccc1C1C(C(=O)CC2CCCC2)=C(O)C(=O)N1c1ccc(-c2ccsc2)cc1` (stereo not shown) [Compound I-439], the half-maximal inhibitory concentration (IC50) turned out to be 116 nM.

Turning to `COC1=C(C(=O)CC(C)C)C(c2ccccc2OC)N(c2ccc(-c3ccc(C)s3)cc2)C1=O` (stereo not shown) [Compound I-329], the half-maximal inhibitory concentration (IC50) was determined as 578 nM. Turning to `COCc1ccccc1C1C(C(=O)C(C)C)=C(O)C(=O)N1c1ccc(-c2ccc(C)s2)cc1` (stereo not shown) [Compound I-266], the IC50 worked out at 25 nM. With `COCc1ccccc1C1C(C(=O)CC(C)C)=C(O)C(=O)N1c1ccc(-c2noc(C)n2)cc1` (stereo not shown) [Compound I-315] the figure was 252 nM; with `CCOc1ccccc1C1C(C(=O)C(C)(C)C)=C(O)C(=O)N1c1ccc(-c2ccon2)cc1` (stereo not shown) [Compound I-059], 260 nM. With `COCCOc1cc(F)ccc1C1C(C(=O)C(C)C)=C(O)C(=O)N1c1ccc(-c2ccoc2)cc1` (stereo not shown) [Compound I-367], the IC50 worked out at 19 nM.

On to `CCc1nc2cc(N3C(=O)C(O)=C(C(=O)C(C)C)C3c3ccccc3OC(C)C)ccc2o1` (stereo not shown) [Compound I-464], for which the IC50 is 453 nM. Take `CNC(=O)COc1ccccc1C1C(C(=O)C(C)C)=C(O)C(=O)N1c1ccc(-c2ccsc2)cc1` (stereo not shown) [Compound I-188]: the IC50 turned out to be 22 nM. Regarding `O=C(C1=C(O)C(=O)N(c2ccc(-c3ccon3)cc2)C1C1CCCCC1)c1ccc(OC(F)(F)F)cc1` (stereo not shown) [Compound I-026], the IC50 came out at 339 nM. Take `CC(C)CC(=O)C1=C(O)C(=O)N(c2ccc(-c3ccoc3)cc2)C1c1ccccc1C(=O)N(C)C` (stereo not shown) [Compound I-430]: the IC50 amounted to 153 nM. Consider `COCCCOc1ncccc1C1C(C(=O)C(C)C)=C(O)C(=O)N1c1ccc(-c2csc(C)c2)cc1` (stereo not shown) [Compound I-571], for which the half-inhibitory concentration (IC50) worked out at 60 nM. Take `COC(=O)COc1ccccc1C1c2c(C(C)(C)C)n[nH]c2C(=O)N1c1ccc(-c2ccon2)cc1` (stereo not shown) [II-028]: the IC50 amounted to 14 nM. Regarding `COc1ccccc1C1c2c(C(C)(C)C)n[nH]c2C(=O)N1c1ccc(-c2ccoc2)nc1` (stereo not shown) [II-253], the IC50 was 20 nM. With `CC(C)c1n[nH]c2c1C(c1ccccc1C(=O)NCCO)N(c1ccc(-c3ccsc3)cc1)C2=O` (stereo not shown) [II-091], the half-inhibitory concentration (IC50) worked out at 2 nM. In the case of `CNC(=O)CCc1ccccc1C1C(C(=O)C(C)C)=C(O)C(=O)N1c1ccc(-c2noc(C)n2)cc1` (stereo not shown) [Compound I-593], the 50% inhibitory concentration (IC50) stood at 811 nM.

As to `COc1ncccc1C1C(C(=O)CC(C)C)=C(O)C(=O)N1c1ccc(-c2ccc(C)s2)cc1` (stereo not shown) [Compound I-336], the 50% inhibitory concentration (IC50) is 351 nM. Under `Cc1cc(-c2ccc(N3C(=O)C(O)=C(C(=O)C(C)C)C3c3ccccc3OC(F)(F)F)cc2)cs1` (stereo not shown) [Compound I-322] stands 102 nM; under `COc1ncccc1C1c2c(C(C)(C)C)n[nH]c2C(=O)N1c1ccc(C2=NCCS2)cc1` (stereo not shown) [II-192], 222 nM; under `COCCOCc1ncccc1C1c2c(C(C)(C)C)n[nH]c2C(=O)N1c1ccc(-c2ccsc2)cc1` (stereo not shown) [II-277], 274 nM. Take `Cc1nc(-c2ccc(N3C(=O)c4[nH]nc(C(C)(C)C)c4C3c3ccccc3OCCO)cc2)no1` (stereo not shown) [II-017]: the 50% inhibitory concentration (IC50) amounted to 54 nM. As to `CC(C)c1n[nH]c2c1C(c1ccccc1OCc1nnn[nH]1)N(c1ccc(-c3ccsc3)cc1)C2=O` (stereo not shown) [II-175], the 50% inhibitory concentration (IC50) is 3 nM. With `CCOCOc1ccccc1C1C(C(=O)C(C)C)=C(O)C(=O)N1c1ccc(-c2ccsc2)cc1` (stereo not shown) [Compound I-544] the figure was 8 nM.

Take `COc1ccccc1C1c2c(C(C)(C)C(=O)N(C)C)n[nH]c2C(=O)N1c1ccc(-c2ccsc2)cc1` (stereo not shown) [II-172]: the 50% inhibitory concentration (IC50) amounted to 11 nM.

With `COc1ccccc1C1c2c(C(C)(C)C)n[nH]c2C(=O)N1c1ccc(-c2cccs2)nc1` (stereo not shown) [II-255], the half-inhibitory concentration (IC50) came to 3 nM. Regarding `COc1cc(F)ccc1C1c2c(C(C)(C)C)n[nH]c2C(=O)N1c1ccc(-c2ccon2)cc1` (stereo not shown) [II-059], the IC50 amounted to 46 nM.

As to `CC(C)(C)C(=O)C1=C(O)C(=O)N(c2ccc(-c3ccon3)cc2)C1c1ccccc1OCC(N)=O` (stereo not shown) [Compound I-144], the IC50 is 365 nM. As to `Cc1ncccc1C1C(C(=O)C(C)(C)C)=C(O)C(=O)N1c1ccc(-c2ccsc2)cc1` (stereo not shown) [Compound I-143], the concentration for half-maximal inhibition (IC50) is 331 nM. In the case of `COCCOc1ccccc1C1C(C(=O)C(C)C)=C(O)C(=O)N1c1ccc(-c2cccs2)cc1` (stereo not shown) [Compound I-226], the half-inhibitory concentration (IC50) was found to be 12 nM.

For the molecule `COc1ccccc1C1C(C(=O)C(C)(C)C)=C(O)C(=O)N1c1ccc(C(C)(C)C)cc1` (stereo not shown) [Compound I-046], the IC50 was found to be 580 nM. For `COCCOc1ccccc1C1C(C(=O)C(C)C)=C(O)C(=O)N1c1ccc(-c2nc(C)no2)cc1` (stereo not shown) [Compound I-271], the IC50 turned out to be 542 nM. In the case of `COc1ncccc1C1c2c(C(C)(C)C)n[nH]c2C(=O)N1c1ccc(-c2cccs2)cn1` (stereo not shown) [II-260], the IC50 stood at 36 nM.

Turning to `CC(C)CC(=O)C1=C(O)C(=O)N(c2ccc(-c3ccoc3)cc2)C1c1ccccc1OC(F)F` (stereo not shown) [Compound I-342], the IC50 was determined as 67 nM. Regarding `CC(C)(C)c1n[nH]c2c1C(c1cccc3c1OCO3)N(c1ccc(-c3ccon3)cc1)C2=O` (stereo not shown) [II-006], the IC50 came out at 245 nM. Consider `Cc1nc(-c2ccc(N3C(=O)C(O)=C(C(=O)C(C)C)C3c3ccccc3OC(C)C)cc2)no1` (stereo not shown) [Compound I-312], for which the 50% inhibitory concentration (IC50) is 54 nM.
